Experimental data published in patent US20100204224A1, “AZACYCLIC COMPOUNDS AS INHIBITORS OF SENSORY NEURONE SPECIFIC SODIUM CHANNELS” (priority 2005, published 2010).
pIC50: −log10 of the molar value. Structures can show the parent of a compound that is named as a salt.

Target: T1, human Nav1.8 (hNav1.8) ion channel (Homo sapiens, UniProt Q9Y5Y9)
T1 construct: expressed in transfected cells
Assay: Inhibition of human Nav1.8 stably expressed in SH-SY-5Y cells (membrane potential dye fluorescence assay)
Format: cell-based
Conditions: SH-SY-5Y hNav1.8 cells; FLIPR membrane potential dye; 10 μM pyrethroid, 250 nM TTX; test concentration range 100 μM-0.05 μM; read-out: hNav1.8 IC50

T1 sequence (Q9Y5Y9 whole entry): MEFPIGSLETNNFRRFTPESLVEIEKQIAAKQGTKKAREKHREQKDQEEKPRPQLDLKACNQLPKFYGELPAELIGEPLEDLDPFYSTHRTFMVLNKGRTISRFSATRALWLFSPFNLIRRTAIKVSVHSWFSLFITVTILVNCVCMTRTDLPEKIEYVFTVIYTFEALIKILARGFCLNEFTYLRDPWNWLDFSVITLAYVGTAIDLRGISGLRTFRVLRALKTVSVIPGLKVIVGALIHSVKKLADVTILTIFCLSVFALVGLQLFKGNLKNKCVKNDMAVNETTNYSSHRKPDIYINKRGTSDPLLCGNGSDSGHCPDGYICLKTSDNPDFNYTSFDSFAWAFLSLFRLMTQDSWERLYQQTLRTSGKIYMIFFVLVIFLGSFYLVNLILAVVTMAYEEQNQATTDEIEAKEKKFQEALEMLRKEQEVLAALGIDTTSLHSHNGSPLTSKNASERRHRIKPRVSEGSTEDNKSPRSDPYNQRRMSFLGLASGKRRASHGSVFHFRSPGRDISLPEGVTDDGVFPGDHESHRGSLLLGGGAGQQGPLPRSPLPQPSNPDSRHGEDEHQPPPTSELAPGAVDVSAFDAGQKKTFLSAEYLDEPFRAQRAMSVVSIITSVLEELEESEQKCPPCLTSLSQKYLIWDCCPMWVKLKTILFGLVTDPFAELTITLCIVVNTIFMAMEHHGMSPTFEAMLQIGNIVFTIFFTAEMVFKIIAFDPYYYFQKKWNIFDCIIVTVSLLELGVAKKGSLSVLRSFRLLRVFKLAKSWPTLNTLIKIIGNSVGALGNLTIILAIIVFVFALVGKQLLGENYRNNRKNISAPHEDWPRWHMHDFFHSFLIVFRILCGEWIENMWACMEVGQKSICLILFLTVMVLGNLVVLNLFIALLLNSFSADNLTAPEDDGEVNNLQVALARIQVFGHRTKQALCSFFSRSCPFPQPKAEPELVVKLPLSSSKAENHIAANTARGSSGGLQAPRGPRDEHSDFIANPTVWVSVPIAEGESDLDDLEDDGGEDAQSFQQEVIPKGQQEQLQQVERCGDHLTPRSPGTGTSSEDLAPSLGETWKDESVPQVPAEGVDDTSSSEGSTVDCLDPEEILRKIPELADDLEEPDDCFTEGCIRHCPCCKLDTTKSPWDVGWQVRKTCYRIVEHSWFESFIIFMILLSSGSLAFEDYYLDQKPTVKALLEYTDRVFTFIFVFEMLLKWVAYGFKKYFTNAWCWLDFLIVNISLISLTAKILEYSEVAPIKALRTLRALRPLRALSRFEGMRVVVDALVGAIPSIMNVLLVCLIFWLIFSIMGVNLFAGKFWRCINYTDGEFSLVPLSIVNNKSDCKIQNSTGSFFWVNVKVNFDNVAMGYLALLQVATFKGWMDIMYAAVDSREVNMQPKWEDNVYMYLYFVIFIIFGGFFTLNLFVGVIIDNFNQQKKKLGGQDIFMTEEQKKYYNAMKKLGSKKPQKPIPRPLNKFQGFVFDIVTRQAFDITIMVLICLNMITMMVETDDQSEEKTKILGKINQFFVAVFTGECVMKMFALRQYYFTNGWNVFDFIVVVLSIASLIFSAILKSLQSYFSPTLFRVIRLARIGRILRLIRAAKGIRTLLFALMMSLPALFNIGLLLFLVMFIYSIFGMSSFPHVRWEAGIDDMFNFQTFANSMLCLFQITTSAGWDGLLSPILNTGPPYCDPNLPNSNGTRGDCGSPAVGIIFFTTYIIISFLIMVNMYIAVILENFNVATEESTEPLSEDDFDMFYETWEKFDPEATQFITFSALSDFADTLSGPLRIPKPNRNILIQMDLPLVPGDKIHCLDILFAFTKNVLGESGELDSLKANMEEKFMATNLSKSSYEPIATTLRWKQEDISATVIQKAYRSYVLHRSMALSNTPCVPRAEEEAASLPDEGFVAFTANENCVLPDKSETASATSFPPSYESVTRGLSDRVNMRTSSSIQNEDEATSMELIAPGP

| Compound | pIC50 |
| --- | --- |
| Cc1ccccc1C(C)N1CC2CC1CN2C(=O)Nc1ccc(OCc2ccccc2)cc1 (stereo not drawn) [Example 31, 5-(1-o-Tolyl-ethyl)-2,5-diaza-bicyclo[2.2.1]heptane-2-carboxylic acid (4-benzyloxy-phenyl)-amide] | 6.22 |
| CC(c1ccc(F)cc1)N1CC2CC1CN2C(=O)Nc1ccc(C(F)(F)F)cc1 (stereo not drawn) [Example 46, 5-[1-(4-Fluoro-phenyl)-ethyl]-2,5-diaza-bicyclo[2.2.1]heptane-2-carboxylic acid (4-trifluoromethyl-phenyl)-amide] | 5.88 |
| CC(c1ccc(F)cc1)N1CC2CC1CN2C(=O)Nc1cccc(Oc2ccccc2)c1 (stereo not drawn) [Example 52, 5-[1-(4-Fluoro-phenyl)-ethyl]-2,5-diaza-bicyclo[2.2.1]heptane-2-carboxylic acid (3-phenoxy-phenyl)-amide] | 6.05 |
| CC(Cc1c(F)cccc1Cl)N1CC2CC1CN2C(=O)Nc1ccc(C(F)(F)F)cc1 (stereo not drawn) [Example 85, 5-[2-(2-Chloro-6-fluoro-phenyl)-1-methyl-ethyl]-2,5-diaza-bicyclo[2.2.1]heptane-2-carboxylic acid (4-trifluoromethyl-phenyl)-amide] | 6.20 |
| O=C(Nc1ccc(Oc2ccccc2)cc1)N1CCC2(CCN(Cc3ccccc3)C2)C1 (stereo not drawn) [Example 88, 7-Benzyl-2,7-diaza-spiro[4.4]nonane-2-carboxylic acid (4-phenoxy-phenyl)-amide] | 6.41 |
| Cc1ccc(Oc2ccc(NC(=O)N3CC4CC3CN4C(C)c3ccccc3Cl)cc2)cc1 (stereo not drawn) [Example 140, 5-[1-(2-Chloro-phenyl)-ethyl]-2,5-diaza-bicyclo[2.2.1]heptane-2-carboxylic acid (4-p-tolyloxy-phenyl)-amide] | 5.91 |
| Cc1ccccc1C(C)N1CC2CC1CN2C(=O)Nc1ccc(OCCN2CCOCC2)cc1 (stereo not drawn) [Example 44, 5-(1-o-Tolyl-ethyl)-2,5-diaza-bicyclo[2.2.1]heptane-2-carboxylic acid [4-(2-morpholin-4-yl-ethoxy)-phenyl]-amide] | 4.57 |
| Cc1ccccc1C(C)N1CC2CC1CN2C(=O)Nc1ccc(OCCc2ccccn2)cc1 (stereo not drawn) [Example 45, 5-(1-o-Tolyl-ethyl)-2,5-diaza-bicyclo[2.2.1]heptane-2-carboxylic acid [4-(2-pyridin-2-yl-ethoxy)-phenyl]-amide] | 5.49 |
| O=C(Nc1ccc(Oc2ccc(F)cc2)cc1)N1CCC2(CCN(C3Cc4ccccc4C3)C2)C1 (stereo not drawn) [Example 104, 7-Indan-2-yl-2,7-diaza-spiro[4.4]nonane-2-carboxylic acid [4-(4-fluoro-phenoxy)-phenyl]-amide] | 6.37 |
| Cc1ccccc1C(C)N1CC2CC1CN2C(=O)Nc1ccc(OCCN(C)C)cc1 (stereo not drawn) [Example 21, 5-(1-o-Tolyl-ethyl)-2,5-diaza-bicyclo[2.2.1]heptane-2-carboxylic acid [4-(2-dimethylamino-ethoxy)-phenyl]-amide] | 4.55 |
| CC(c1c(F)cccc1F)N1CC2CC1CN2C(=O)Nc1ccc(C(F)(F)F)cc1 (stereo not drawn) [Example 13, 5-[1-(2,6-Difluoro-phenyl)-ethyl]-2,5-diaza-bicyclo[2.2.1]heptane-2-carboxylic acid (4-trifluoromethyl-phenyl)-amide] | 5.20 |
| CC(c1ccc(Cl)cc1Cl)N1CC2CC1CN2C(=O)Nc1ccc(Oc2ccc(F)cc2)cc1 (stereo not drawn) [Example 119, 5-[1-(2,4-Dichloro-phenyl)-ethyl]-2,5-diaza-bicyclo[2.2.1]heptane-2-carboxylic acid [4-(4-fluoro-phenoxy)-phenyl]-amide] | 4.68 |
| O=C(Nc1ccc(Oc2ccc(F)cc2)cc1)N1CC2CC1CN2C1CCc2ccccc2C1 (stereo not drawn) [Example 101, 5-(1,2,3,4-Tetrahydro-naphthalen-2-yl)-2,5-diaza-bicyclo[2.2.1]heptane-2-carboxylic acid [4-(4-fluoro-phenoxy)-phenyl]-amide methanesulfonate salt] | 6.47 |
| Cc1ccccc1C(C)N1CC2CC1CN2C(=O)Nc1ccc(OCCn2ccnc2)cc1 (stereo not drawn) [Example 43, 5-(1-o-Tolyl-ethyl)-2,5-diaza-bicyclo[2.2.1]heptane-2-carboxylic acid [4-(2-imidazol-1-yl-ethoxy)-phenyl]-amide] | ≤ 4.52 |
| COCCOCCOc1ccc(NC(=O)N2CC3CC2CN3C(C)c2ccccc2C)cc1 (stereo not drawn) [Example 18, 5-(1-o-Tolyl-ethyl)-2,5-diaza-bicyclo[2.2.1]heptane-2-carboxylic acid {4-[2-(2-methoxy-ethoxy)-ethoxy]-phenyl}-amide] | ≤ 4.52 |
| Cc1ccccc1C(C)N1CC2CC1CN2C(=O)Nc1ccc(-c2ccccc2)cc1 (stereo not drawn) [Example 38, 5-(1-o-Tolyl-ethyl)-2,5-diaza-bicyclo[2.2.1]heptane-2-carboxylic acid biphenyl-4-ylamide] | 5.84 |
| Cc1ccccc1CC(C)N1CC2CC1CN2C(=O)Nc1ccc(Oc2ccccc2)cc1 (stereo not drawn) [Example 58, 5-(1-Methyl-2-o-tolyl-ethyl)-2,5-diaza-bicyclo[2.2.1]heptane-2-carboxylic acid (4-phenoxy-phenyl)-amide] | 6.64 |
| O=C(c1ccc(C(F)(F)F)cc1)N1CC2CC1CN2C1CCc2ccc(F)cc2C1 (stereo not drawn) [Example 138, [5-(7-Fluoro-1,2,3,4-tetrahydro-naphthalen-2-yl)-2,5-diaza-bicyclo[2.2.1]hept-2-yl]-(4-trifluoromethyl-phenyl)-methanone] | 4.88 |
| CC(c1ccccc1Cl)N1CC2CC1CN2C(=O)Nc1ccc(Oc2ccc(F)cc2)cc1 (stereo not drawn) [Example 96, 5-[1-(2-Chloro-phenyl)-ethyl]-2,5-diaza-bicyclo[2.2.1]heptane-2-carboxylic acid [4-(4-fluoro-phenoxy)-phenyl]-amide methanesulfonate salt] | 6.43 |
| CC(c1ccccc1Cl)N1CC2CC1CN2C(=O)c1ccc(Oc2cccc(F)c2)cc1 (stereo not drawn) [Example 175, {5-[1-(2-Chloro-phenyl)-ethyl]-2,5-diaza-bicyclo[2.2.1]hept-2-yl}-[4-(3-fluoro-phenoxy)-phenyl]-methanone] | 6.19 |
| O=C(Nc1ccc(C(F)(F)F)cc1)N1CC2CC1CN2C1CCc2ccccc2C1 (stereo not drawn) [Example 77, 5-(1,2,3,4-Tetrahydro-naphthalen-2-yl)-2,5-diaza-bicyclo[2.2.1]heptane-2-carboxylic acid (4-trifluoromethyl-phenyl)-amide] | 6.23 |
| CC(c1ccccc1Cl)N1CC2CC1CN2C(=O)Nc1ccc(Oc2ccccc2F)cc1 (stereo not drawn) [Example 109, 5-[1-(2-Chloro-phenyl)-ethyl]-2,5-diaza-bicyclo[2.2.1]heptane-2-carboxylic acid [4-(2-fluoro-phenoxy)-phenyl]-amide] | 6.17 |
| O=C(Nc1ccc(C(F)(F)F)cc1)N1CC2CC1CN2C1CCc2cc(F)ccc21 (stereo not drawn) [Example 95, 5-(5-Fluoro-indan-1-yl)-2,5-diaza-bicyclo[2.2.1]heptane-2-carboxylic acid (4-trifluoromethyl-phenyl)-amide] | 5.97 |
| CC(c1ccc(F)cc1Cl)N1CC2CC1CN2C(=O)c1ccc(Oc2ccc(F)cc2)cc1 (stereo not drawn) [Example 164, {5-[1-(2-Chloro-4-fluoro-phenyl)-ethyl]-2,5-diaza-bicyclo[2.2.1]hept-2-yl}-[4-(4-fluoro-phenoxy)-phenyl]-methanone] | 4.87 |
| CC(c1ccccc1C(F)(F)F)N1CC2CC1CN2C(=O)Nc1ccc(C(F)(F)F)cc1 (single isomer, unassigned) [Example 54, 5-[1-(2-Trifluoromethyl-phenyl)-ethyl]-2,5-diaza-bicyclo[2.2.1]heptane-2-carboxylic acid (4-trifluoromethyl-phenyl)-amide] | 5.76 |

Same assay, conditions: hNav1.8 IC50, SH-SY-5Y hNav1.8 cells; FLIPR membrane potential dye; 10 μM pyrethroid, 250 nM TTX; test concentration range 100 μM-0.05 μM

| Compound | pIC50 |
| --- | --- |
| CC(c1c(F)cccc1Cl)N1CC2CC1CN2C(=O)Cc1ccc(Oc2ccc(F)cc2)cc1 (single isomer, unassigned) [Example 165, 1-{5-[1-(2-Chloro-6-fluoro-phenyl)-ethyl]-2,5-diaza-bicyclo[2.2.1]hept-2-yl}-2-[4-(4-fluoro-phenoxy)-phenyl]-ethanone] | 5.91 |
| O=C(Cc1ccc(C(F)(F)F)cc1)N1CC2CC1CN2C1CCc2ccc(F)cc2C1 (stereo not drawn) [Example 148, 1-[5-(7-Fluoro-1,2,3,4-tetrahydro-naphthalen-2-yl)-2,5-diaza-bicyclo[2.2.1]hept-2-yl]-2-(4-trifluoromethyl-phenyl)-ethanone] | 5.62 |
| CC(c1ccccc1Cl)N1CC2CC1CN2C(=O)Cc1ccc(Oc2cccc(F)c2)cc1 (stereo not drawn) [Example 170, 1-{5-[1-(2-Chloro-phenyl)-ethyl]-2,5-diaza-bicyclo[2.2.1]hept-2-yl}-2-[4-(3-fluoro-phenoxy)-phenyl]-ethanone] | 5.80 |
| O=C(Cc1ccc(Oc2ccc(F)cc2)cc1)N1CC2CC1CN2C1CCc2cc(F)ccc2C1 (stereo not drawn) [Example 144, 2-[4-(4-Fluoro-phenoxy)-phenyl]-1-[5-(6-fluoro-1,2,3,4-tetrahydro-naphthalen-2-yl)-2,5-diaza-bicyclo[2.2.1]hept-2-yl]-ethanone] | 5.80 |
| Cc1ccccc1C(C)N1CC2CC1CN2C(=O)Nc1ccc(Oc2ccc(F)cc2)cc1 (single isomer, unassigned) [Example 74, 5-(1-o-Tolyl-ethyl)-2,5-diaza-bicyclo[2.2.1]heptane-2-carboxylic acid [4-(4-fluoro-phenoxy)-phenyl]-amide] | 6.96 |
| Cc1ccccc1C(C)N1CC2CC1CN2C(=O)Cc1ccc(Oc2ccccc2)cc1 (stereo not drawn) [Example 36, 2-(4-Phenoxy-phenyl)-1-[5-(1-o-tolyl-ethyl)-2,5-diaza-bicyclo[2.2.1]hept-2-yl]-ethanone] | 6.09 |
| CC(c1ccccc1Br)N1CC2CC1CN2C(=O)Cc1ccc(Oc2ccc(F)cc2)cc1 (stereo not drawn) [Example 154, 1-{5-[1-(2-Bromo-phenyl)-ethyl]-2,5-diaza-bicyclo[2.2.1]hept-2-yl}-2-[4-(4-fluoro-phenoxy)-phenyl]-ethanone] | 5.37 |
| Cc1ccccc1C(C)N1CC2CC1CN2C(=O)Nc1ccc(Oc2ccc(F)cc2)cc1 (stereo not drawn) [Example 87, 5-(1-o-Tolyl-ethyl)-2,5-diaza-bicyclo[2.2.1]heptane-2-carboxylic acid [4-(4-fluoro-phenoxy)-phenyl]-amide methanesulfonate salt] | 6.22 |
